Measurements taken from article PMC9908032, “Novel nitroxide-bile acid conjugates inform substrate requirements for human bile acid transporters” (European journal of pharmaceutical sciences : official …, 2022).

T1: apical sodium dependent bile acid transporter (hASBT) (Homo sapiens, UniProt Q12908)
T1 construct: gene SLC10A2
T1 sequence (Q12908 1-348): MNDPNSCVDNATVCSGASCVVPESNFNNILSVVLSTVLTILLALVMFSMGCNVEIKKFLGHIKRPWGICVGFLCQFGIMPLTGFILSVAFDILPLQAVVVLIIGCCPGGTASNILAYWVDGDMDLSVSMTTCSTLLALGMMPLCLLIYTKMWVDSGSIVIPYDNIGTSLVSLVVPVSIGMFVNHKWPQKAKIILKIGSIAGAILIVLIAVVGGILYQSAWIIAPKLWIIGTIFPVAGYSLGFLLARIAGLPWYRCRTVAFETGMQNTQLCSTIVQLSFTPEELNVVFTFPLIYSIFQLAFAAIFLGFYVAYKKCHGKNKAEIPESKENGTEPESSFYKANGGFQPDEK

T2: Na+/taurocholate cotransporting polypeptide (hNTCP) (Homo sapiens, UniProt Q14973)
T2 construct: gene SLC10A1
T2 sequence (Q14973 1-349): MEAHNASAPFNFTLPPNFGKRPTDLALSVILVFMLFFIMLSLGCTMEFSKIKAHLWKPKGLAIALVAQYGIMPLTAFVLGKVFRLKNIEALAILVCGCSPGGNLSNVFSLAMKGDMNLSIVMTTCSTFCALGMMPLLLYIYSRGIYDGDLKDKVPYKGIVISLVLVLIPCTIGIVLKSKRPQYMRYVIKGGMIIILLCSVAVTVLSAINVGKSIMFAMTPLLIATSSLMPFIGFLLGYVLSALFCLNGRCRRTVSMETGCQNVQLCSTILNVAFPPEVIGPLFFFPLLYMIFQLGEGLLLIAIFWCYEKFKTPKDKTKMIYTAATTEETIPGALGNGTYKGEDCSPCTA

B1: Na+/taurocholate cotransporting polypeptide (hNTCP) (Homo sapiens) (protein)
chain: MEAHNASAPFNFTLPPNFGKRPTDLALSVILVFMLFFIMLSLGCTMEFSKIKAHLWKPKGLAIALVAQYGIMPLTAFVLGKVFRLKNIEALAILVCGCSPGGNLSNVFSLAMKGDMNLSIVMTTCSTFCALGMMPLLLYIYSRGIYDGDLKDKVPYKGIVISLVLVLIPCTIGIVLKSKRPQYMRYVIKGGMIIILLCSVAVTVLSAINVGKSIMFAMTPLLIATSSLMPFIGFLLGYVLSALFCLNGRCRRTVSMETGCQNVQLCSTILNVAFPPEVIGPLFFFPLLYMIFQLGEGLLLIAIFWCYEKFKTPKDKTKMIYTAATTEETIPGALGNGTYKGEDCSPCTA

What was measured:
[1] = molecular target: T1, apical sodium dependent bile acid transporter (hASBT); assay: inhibition of [3H]-taurocholate uptake in stably transfected hASBT-MDCK cells; type: cell-based
[2] = molecular target: T2, Na+/taurocholate cotransporting polypeptide (hNTCP); assay: inhibition of [3H]-taurocholate uptake in transiently transfected hNTCP-HEK293T cells; type: cell-based
[3] = substrate: C[C@H](CCC(=O)NCCS(=O)(=O)O)[C@H]1CC[C@H]2[C@@H]3[C@H](O)C[C@@H]4C[C@H](O)CC[C@]4(C)[C@H]3C[C@H](O)[C@]12C; assay: cells, lysate or membranes; conditions: Na+

| Molecule | Ki [1] | Ki [2] | Km [3] |
| --- | --- | --- | --- |
| C[C@H](CCC(=O)NCC(=O)O)[C@H]1CC[C@H]2[C@@H]3[C@H](O)C[C@@H]4C[C@H](O)CC[C@]4(C)[C@H]3C[C@H](O)[C@]12C [GCA, glycocholic acid] | 8.28 ± 0.57 µM | 2.47 ± 0.43 µM | – |
| B1 | – | – | 2.14 ± 1.55 µM |
